Test results reported in PMC9235293 (European Journal of Medicinal Chemistry, 2022).

CC(C)[C@H](NC(=O)OCc1ccccc1)C(=O)N[C@@H](Cc1cccs1)C(=O)N[C@H](C=O)C[C@@H]1CCNC1=O [MPI15]
Solubility in DMSO: insoluble
